What was measured:
[1] = test system: pigweed; test: Test A preemergence; format: in vivo, Amaranthus retroflexus
Outline: (§1)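 Scoring was visual, on a scale where 100 means complete control and 0 means no effect, comparing treated with untreated plants around 10 days post-application. Compounds in surfactant-containing non-phytotoxic solvent were sprayed onto soil preemergence or onto one- to two-leaf seedlings (2–10 cm) postemergence.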

[2] = test system: crabgrass, large; test: Test A preemergence; format: in vivo, Digitaria sanguinalis
Outline: as §1

[3] = test system: ducksalad; test: Test B flood; format: in vivo, Heteranthera limosa; details: 250 g ai/ha, visual rating on 0 to 100 scale (0 no effect, 100 complete control), 13 to 15 days
Outline: (§2)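 Visual ratings on a 0–100 scale, where 0 means no effect and 100 means complete control, were assigned by comparison with controls 13 to 15 days after treatment. Compounds went into paddy water over 2-leaf plants flooded to 3 cm.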

[4] = test system: morningglory; test: Test A preemergence; format: in vivo, Ipomoea spp.
Outline: as §1

[5] = test system: foxtail, giant; test: Test A postemergence; format: in vivo, Setaria faberii
Outline: as §1

[6] = test system: morningglory; test: Test A postemergence; format: in vivo, Ipomoea spp.
Outline: as §1

[7] = test system: wheat; test: Test A postemergence; format: in vivo, Triticum aestivum
Outline: as §1

[8] = test system: barnyardgrass; test: Test B flood; format: in vivo, Echinochloa crus-galli; details: 250 g ai/ha, visual rating on 0 to 100 scale (0 no effect, 100 complete control), 13 to 15 days
Outline: as §2

[9] = test system: velvetleaf; test: Test A preemergence; format: in vivo, Abutilon theophrasti
Outline: as §1

[10] = test system: rice; test: Test B flood; format: in vivo, Oryza sativa; details: 250 g ai/ha, visual rating on 0 to 100 scale (0 no effect, 100 complete control), 13 to 15 days
Outline: as §2

[11] = test system: barnyardgrass; test: Test A postemergence; format: in vivo, Echinochloa crus-galli
Outline: as §1

[12] = test system: barnyardgrass; test: Test A preemergence; format: in vivo, Echinochloa crus-galli
Outline: as §1

[13] = test system: foxtail, giant; test: Test A preemergence; format: in vivo, Setaria faberii
Outline: as §1

[14] = test system: velvetleaf; test: Test A postemergence; format: in vivo, Abutilon theophrasti
Outline: as §1

[15] = test system: corn; test: Test A preemergence; format: in vivo, Zea mays
Outline: as §1

[16] = test system: corn; test: Test A postemergence; format: in vivo, Zea mays
Outline: as §1

[17] = test system: crabgrass, large; test: Test A postemergence; format: in vivo, Digitaria sanguinalis
Outline: as §1

[18] = test system: sedge, umbrella; test: Test B flood; format: in vivo, Cyperus difformis; details: 250 g ai/ha, visual rating on 0 to 100 scale (0 no effect, 100 complete control), 13 to 15 days
Outline: as §2

[19] = test system: wheat; test: Test A preemergence; format: in vivo, Triticum aestivum; details: preemergence
Outline: as §1

[20] = test system: pigweed; test: Test A postemergence; format: in vivo, Amaranthus retroflexus
Outline: as §1

[21] = Preemergence, 500 g ai/ha, 0 to 100 scale, 0 no effect, 100 complete control
[22] = preemergence, 125 g ai/ha, visual injury, 0 to 100 scale, approx. 10 days
[23] = Postemergence, 500 g ai/ha, visual rating after approx. 10 days, 0 to 100 scale (0 no effect, 100 complete control)
[24] = postemergence, 125 g ai/ha, about 10 days, visual rating on 0 to 100 scale (0 no effect, 100 complete control)
[25] = Postemergence, 125 g ai/ha, 0 to 100 scale, 0 no effect, 100 complete control
[26] = 125 g ai/ha, visual injury, 0 to 100 scale, approx. 10 days
[27] = 500 g ai/ha, visual injury after approx. 10 days, 0 to 100 scale (0 no effect, 100 complete control)
[28] = preemergence, 500 g ai/ha, visual injury after approx. 10 days, 0 to 100 scale (0 no effect, 100 complete control)

| Structure (SMILES) | Pigweed plant response rating [1, 22] | Crabgrass, Large plant response rating [2, 22] | Plant response rating, Ducksalad [3] | Morningglory plant response rating [4, 22] | Foxtail, Giant plant response rating [5, 23] | Foxtail, Giant plant response rating [5, 24] | Morningglory plant response rating [6, 23] | Morningglory plant response rating [6, 24] | Wheat plant response rating [7, 23] | Wheat plant response rating [7, 24] | Plant response rating, Barnyardgrass [8] | Velvetleaf plant response rating [9, 22] | Plant response rating, Rice [10] | Barnyardgrass plant response rating [11, 23] | Barnyardgrass plant response rating [12, 22] | Foxtail, Giant plant response rating [13, 22] | Velvetleaf plant response rating [14, 23] | Velvetleaf plant response rating [14, 24] | Corn plant response rating [15, 22] | Corn plant response rating [16, 23] | also measured |
| --- | --- | --- | --- | --- | --- | --- | --- | --- | --- | --- | --- | --- | --- | --- | --- | --- | --- | --- | --- | --- | --- |
| Cc1cc(C(=O)NCC(F)(F)F)nn1Oc1ccnc(C(F)(F)F)c1 [Compound 79] | 30 | 60 | 0 | 0 | 30 | 10 | 70 | 30 | 20 | 0 | 0 | 0 | 0 | 30 | 10 | 10 | 50 | 40 | 0 | 10 | Pigweed plant response rating [1, 21]: 100; Crabgrass, Large plant response rating [2, 21]: 90; Morningglory plant response rating [4, 21]: 50; Velvetleaf plant response rating [9, 21]: 60; Barnyardgrass plant response rating [11, 25]: 0; Barnyardgrass plant response rating [12, 21]: 70; Foxtail, Giant plant response rating [13, 21]: 90; Corn plant response rating [15, 21]: 0; Corn plant response rating [16, 24]: 10; Crabgrass, Large plant response rating [17, 23]: 60; Crabgrass, Large plant response rating [17, 24]: 20; Plant response rating, Sedge, Umbrella [18]: 0; Wheat plant response rating [19, 26]: 0; Wheat plant response rating [19, 27]: 20; Pigweed plant response rating [20, 23]: 60; Pigweed plant response rating [20, 24]: 40 |
| CCCc1cc(-c2ccc(C(F)(F)F)cc2)nn1Cc1ccnc(C(F)(F)F)c1 [Compound 113] | 100 | 80 | 60 | 40 | 40 | 20 | 100 | 40 | 20 | 20 | 40 | 30 | 30 | 20 | 20 | 80 | 100 | 40 | 10 | 20 | Pigweed plant response rating [1, 28]: 100; Crabgrass, Large plant response rating [2, 28]: 100; Morningglory plant response rating [4, 28]: 70; Velvetleaf plant response rating [9, 28]: 40; Barnyardgrass plant response rating [11, 24]: 10; Barnyardgrass plant response rating [12, 28]: 60; Foxtail, Giant plant response rating [13, 28]: 100; Corn plant response rating [15, 28]: 10; Corn plant response rating [16, 24]: 20; Crabgrass, Large plant response rating [17, 23]: 40; Crabgrass, Large plant response rating [17, 24]: 20; Plant response rating, Sedge, Umbrella [18]: 70; Wheat plant response rating [19, 26]: 10; Wheat plant response rating [19, 27]: 30; Pigweed plant response rating [20, 23]: 100; Pigweed plant response rating [20, 24]: 60 |
| CCCCNC(=O)c1cc(C)n(Oc2ccnc(C(F)(F)F)c2)n1 [Compound 85] | 0 | 20 | 0 | 0 | 20 | 0 | 40 | 10 | 0 | 0 | 0 | 0 | 0 | 10 | 0 | 0 | 10 | 0 | 0 | 10 | Pigweed plant response rating [1, 21]: 0; Crabgrass, Large plant response rating [2, 21]: 80; Morningglory plant response rating [4, 21]: 10; Velvetleaf plant response rating [9, 21]: 0; Barnyardgrass plant response rating [11, 25]: 0; Barnyardgrass plant response rating [12, 21]: 30; Foxtail, Giant plant response rating [13, 21]: 50; Corn plant response rating [15, 21]: 0; Corn plant response rating [16, 24]: 0; Crabgrass, Large plant response rating [17, 23]: 20; Crabgrass, Large plant response rating [17, 24]: 10; Plant response rating, Sedge, Umbrella [18]: 0; Wheat plant response rating [19, 26]: 0; Wheat plant response rating [19, 27]: 0; Pigweed plant response rating [20, 23]: 10; Pigweed plant response rating [20, 24]: 0 |
| CCc1cc(C(=O)Nc2ccc(F)cc2)nn1Oc1ccnc(C(F)(F)F)c1 [Compound 89] | 0 | 0 | 0 | 0 | 0 | 0 | 0 | 0 | 0 | 0 | 0 | 0 | 0 | 0 | 0 | 0 | 0 | 0 | 0 | 20 | Pigweed plant response rating [1, 28]: 0; Crabgrass, Large plant response rating [2, 28]: 10; Morningglory plant response rating [4, 28]: 0; Velvetleaf plant response rating [9, 28]: 0; Barnyardgrass plant response rating [11, 25]: 0; Barnyardgrass plant response rating [12, 28]: 0; Foxtail, Giant plant response rating [13, 28]: 10; Corn plant response rating [15, 28]: 0; Corn plant response rating [16, 24]: 0; Crabgrass, Large plant response rating [17, 23]: 0; Crabgrass, Large plant response rating [17, 24]: 0; Plant response rating, Sedge, Umbrella [18]: 0; Wheat plant response rating [19, 26]: 0; Wheat plant response rating [19, 27]: 0; Pigweed plant response rating [20, 23]: 0; Pigweed plant response rating [20, 24]: 0 |

— patent US20150105252A1, “SUBSTITUTED PYRAZOLES AS HERBICIDES” (E I DU PONT DE NEMOURS AND COMPANY, priority 2013, published 2015)
